In PubChem BioAssay AID1845194 (Molecular Pharmacology Branch, DTP, NCI, 2023):

System: 287954-098-R-J1 tumor spheroid viability
Assay: Anticancer human tumor 287954-098-R-J1 patient-derived Ewing sarcoma cell line growth inhibition
Settings: spheroids with HUVEC and MSC; for IC50: curve of first compound; for viability, T/C: stronger effect = lower value
In short: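 Single agents and combinations were tested on spheroids built from tumor cells plus HUVEC and hMSC, at half-log dilutions starting at or near clinical Cmax, else 10 microM; final DMSO 0.25% (v/v).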

[1] = second compound 1 µM, first compound 0.00949 µM
[2] = second compound 1 µM, first compound 0.03 µM
[3] = second compound 1 µM, first compound 0.0949 µM
[4] = second compound 1 µM, first compound 0.3 µM
[5] = second compound 1 µM, first compound 0.949 µM
[6] = second compound 1 µM, first compound 3 µM
[7] = second compound 3.16 µM, first compound 0.00949 µM
[8] = second compound 3.16 µM, first compound 0.03 µM
[9] = second compound 3.16 µM, first compound 0.0949 µM
[10] = second compound 3.16 µM, first compound 0.3 µM
[11] = second compound 3.16 µM, first compound 0.949 µM
[12] = second compound 3.16 µM, first compound 3 µM
[13] = second compound 10 µM, first compound 0.00949 µM
[14] = second compound 10 µM, first compound 0.03 µM
[15] = second compound 10 µM, first compound 0.0949 µM
[16] = second compound 10 µM, first compound 0.3 µM
[17] = second compound 10 µM, first compound 0.949 µM
[18] = second compound 10 µM, first compound 3 µM
[19] = second compound 31.6 µM, first compound 0.00949 µM
[20] = second compound 31.6 µM, first compound 0.03 µM
[21] = second compound 31.6 µM, first compound 0.0949 µM
[22] = second compound 31.6 µM, first compound 0.3 µM
[23] = second compound 31.6 µM, first compound 0.949 µM
[24] = second compound 31.6 µM, first compound 3 µM
[25] = second compound 100 µM, first compound 0.00949 µM
[26] = second compound 100 µM, first compound 0.03 µM
[27] = second compound 100 µM, first compound 0.0949 µM
[28] = second compound 100 µM, first compound 0.3 µM
[29] = second compound 100 µM, first compound 0.949 µM
[30] = second compound 100 µM, first compound 3 µM
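Also: spheroids exposed to compound for 7 days before viability readout.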
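For viability, T/C in this document: luminescent signal taken as surrogate of viable cell content; 100% = DMSO vehicle control viability and lower means growth inhibition.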

O=C(c1cc(Cc2n[nH]c(=O)c3ccccc23)ccc1F)N1CCN(C(=O)C2CC2)CC1 + CC[C@@]1(O)C(=O)OCc2c1cc1n(c2=O)Cc2cc3c(CN(C)C)c(O)ccc3nc2-1
IC50 (second compound 0.003 µM): 5240 nM
IC50 (second compound 0.00949 µM): 3840 nM
IC50 (second compound 0.03 µM): < 94.9 nM
IC50 (second compound 0.0949 µM): < 94.9 nM
IC50 (second compound 0.3 µM): < 94.9 nM
viability, T/C (second compound 0.003 µM, first compound 0.0949 µM): 93.7%
viability, T/C (second compound 0.003 µM, first compound 0.3 µM): 96.7%
viability, T/C (second compound 0.003 µM, first compound 0.949 µM): 96.2%
viability, T/C (second compound 0.003 µM, first compound 3 µM): 93.9%
viability, T/C (second compound 0.003 µM, first compound 9.49 µM): 3.33%
viability, T/C (second compound 0.003 µM, first compound 30 µM): 1.93%
viability, T/C (second compound 0.00949 µM, first compound 0.0949 µM): 92.9%
viability, T/C (second compound 0.00949 µM, first compound 0.3 µM): 95.3%
viability, T/C (second compound 0.00949 µM, first compound 0.949 µM): 82.9%
viability, T/C (second compound 0.00949 µM, first compound 3 µM): 63.2%
viability, T/C (second compound 0.00949 µM, first compound 9.49 µM): 1.84%
viability, T/C (second compound 0.00949 µM, first compound 30 µM): 1.78%
viability, T/C (second compound 0.03 µM, first compound 0.0949 µM): 2.21%
viability, T/C (second compound 0.03 µM, first compound 0.3 µM): 2.14%
viability, T/C (second compound 0.03 µM, first compound 0.949 µM): 2.31%
viability, T/C (second compound 0.03 µM, first compound 3 µM): 2.28%
viability, T/C (second compound 0.03 µM, first compound 9.49 µM): 1.82%
viability, T/C (second compound 0.03 µM, first compound 30 µM): 1.46%
viability, T/C (second compound 0.0949 µM, first compound 0.0949 µM): 2.17%
viability, T/C (second compound 0.0949 µM, first compound 0.3 µM): 1.78%
viability, T/C (second compound 0.0949 µM, first compound 0.949 µM): 1.87%
viability, T/C (second compound 0.0949 µM, first compound 3 µM): 1.93%
viability, T/C (second compound 0.0949 µM, first compound 9.49 µM): 1.76%
viability, T/C (second compound 0.0949 µM, first compound 30 µM): 1.56%
viability, T/C (second compound 0.3 µM, first compound 0.0949 µM): 1.94%
viability, T/C (second compound 0.3 µM, first compound 0.3 µM): 1.89%
viability, T/C (second compound 0.3 µM, first compound 0.949 µM): 1.84%
viability, T/C (second compound 0.3 µM, first compound 3 µM): 1.71%
viability, T/C (second compound 0.3 µM, first compound 9.49 µM): 1.55%
viability, T/C (second compound 0.3 µM, first compound 30 µM): 1.28%

CNCc1ccc(-c2cc(-c3nc(-c4ccc(S(=O)(=O)C(C)C)cc4)cnc3N)on2)cc1 + Cn1nnc2c(C(N)=O)ncn2c1=O
IC50 (second compound 1 µM): 545 nM
IC50 (second compound 3.16 µM): 555 nM
IC50 (second compound 10 µM): 551 nM
IC50 (second compound 31.6 µM): 398 nM
IC50 (second compound 100 µM): 170 nM
viability, T/C [1]: 98.6%
viability, T/C [2]: 103%
viability, T/C [3]: 110%
viability, T/C [4]: 103%
viability, T/C [5]: 0.19%
viability, T/C [6]: 0.11%
viability, T/C [7]: 105%
viability, T/C [8]: 106%
viability, T/C [9]: 113%
viability, T/C [10]: 107%
viability, T/C [11]: 0.19%
viability, T/C [12]: 0.1%
viability, T/C [13]: 102%
viability, T/C [14]: 110%
viability, T/C [15]: 106%
viability, T/C [16]: 105%
viability, T/C [17]: 0.16%
viability, T/C [18]: 0.09%
viability, T/C [19]: 104%
viability, T/C [20]: 106%
viability, T/C [21]: 121%
viability, T/C [22]: 66.3%
viability, T/C [23]: 0.13%
viability, T/C [24]: 0.1%
viability, T/C [25]: 97.5%
viability, T/C [26]: 100%
viability, T/C [27]: 103%
viability, T/C [28]: 1.71%
viability, T/C [29]: 0.14%
viability, T/C [30]: 0.16%

Cn1ncnc1[C@H]1c2n[nH]c(=O)c3cc(F)cc(c23)N[C@@H]1c1ccc(F)cc1 + Cn1nnc2c(C(N)=O)ncn2c1=O
IC50 (second compound 1 µM): 544 nM
IC50 (second compound 3.16 µM): 543 nM
IC50 (second compound 10 µM): 506 nM
IC50 (second compound 31.6 µM): 57 nM
IC50 (second compound 100 µM): < 9.49 nM
viability, T/C [1]: 111%
viability, T/C [2]: 106%
viability, T/C [3]: 104%
viability, T/C [4]: 94.7%
viability, T/C [5]: 8.18%
viability, T/C [6]: 2.42%
viability, T/C [7]: 112%
viability, T/C [8]: 106%
viability, T/C [9]: 106%
viability, T/C [10]: 99.2%
viability, T/C [11]: 3.64%
viability, T/C [12]: 2.29%
viability, T/C [13]: 102%
viability, T/C [14]: 106%
viability, T/C [15]: 104%
viability, T/C [16]: 89.2%
viability, T/C [17]: 2.82%
viability, T/C [18]: 2.58%
viability, T/C [19]: 104%
viability, T/C [20]: 90.6%
viability, T/C [21]: 17.9%
viability, T/C [22]: 2.5%
viability, T/C [23]: 2.34%
viability, T/C [24]: 2.04%
viability, T/C [25]: 3.4%
viability, T/C [26]: 2.77%
viability, T/C [27]: 2.49%
viability, T/C [28]: 2.57%
viability, T/C [29]: 2.68%
viability, T/C [30]: 2.3%
